Measurements reported in patent publication US7498046B2, “Composition for inducing immune response comprising inverted microsomes” (Queen Mary & Westfield College, priority 2003, dated 2009).

Columns and labels:
B3Z T cell hybridoma = assay: Activation of B3Z T cell hybridoma (LacZ activity, IL-2 ELISA); assay type: cell-based; conditions: soluble peptide
Description: Microsomes from 2×10^5 RAW309Cr.1 cells were used to load OVA or Ld-specific peptide as described in Material and Methods. 2×10^5 RAW309Cr.1 cells were pulsed with OVA peptide (see Material and Methods). After washing, peptide-pulsed 2×10^5 RAW309Cr.1 cells, OVA-loaded microsomes, Ld-peptide loaded microsomes, and the microsomes without peptide were co-cultured with 10^5 B3Z cells for over night. A) After washing with PBS, LacZ activity in B3Z cells was assayed by total cellular lysates with the LacZ substrate ONPG. The absorbance ([…]) was read after incubation for four hours at 37° C. B3Z cells cultured with 100 nM OVA peptide and normal medium were used as positive and negative control for the B3Z stimulation. B) The supernatants of these cultures were submitted for measuring IL-2 production by ELISA. The experiment was repeated four times with similar results. Error bars indicate the SEM of triplicate cultures. […]
The prepared stimuli including peptide-edited microsomes, peptide-pulsed RAW309Cr.1 cells, OVA peptide, were added to culture of 10^5 B3Z cells in a total of 200 μl. […] The linear range of OVA-response was determined by the addition of serial dilutions of SIINFEKL to the medium due to that the B3Z cells themselves express Kb and present SIINFEKL.

H2-Kb molecules = target: T1, H2-Kb molecules (Mus musculus, UniProt P01901); assay: Photo-crosslinking peptide binding assay of 125I-labelled ANB-NOS-OVA peptide to H2-Kb in microsomes or on the surface of RAW309Cr.1 cells; parameters: species or system murine; conditions: competitor at the concentration of report peptides
T1 construct: incubated with microsomes of RAW309Cr.1 and living RAW309Cr.1 cells under UV irradiation; endogenous in cells; host or cells: RAW309Cr.1 murine macrophage cell line (purified ER microsomes, or living cells)
T1 sequence (P01901 22-369): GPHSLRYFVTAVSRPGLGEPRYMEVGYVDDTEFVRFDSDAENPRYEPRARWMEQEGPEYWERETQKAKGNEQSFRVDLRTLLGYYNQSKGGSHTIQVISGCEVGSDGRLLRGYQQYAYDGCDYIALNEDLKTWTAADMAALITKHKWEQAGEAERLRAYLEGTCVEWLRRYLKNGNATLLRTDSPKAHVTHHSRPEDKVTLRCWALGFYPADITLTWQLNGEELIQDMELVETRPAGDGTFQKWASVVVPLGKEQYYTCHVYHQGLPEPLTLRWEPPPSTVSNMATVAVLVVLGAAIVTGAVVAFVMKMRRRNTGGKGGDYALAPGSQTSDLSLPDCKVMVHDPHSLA
T1 sequence (P01887 21-119 partner): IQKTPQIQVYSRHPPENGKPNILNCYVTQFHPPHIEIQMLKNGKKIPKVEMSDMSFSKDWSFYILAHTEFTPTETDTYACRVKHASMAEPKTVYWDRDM
Description: Peptide OVA 257-264 (SIINFEKL) was modified by substitution of third residue isoleucine to tyrosine in order for iodination and by covalently coupling a phenylazide with a nitro group on the ε-amino group of lysine at position seven. This nitro group can be photoactivated. The crosslinker modification was performed by mixing 0.5 mg of ANB-NOS (N-5-azido-2-nitrobenzoyloxysuccinimide) in 200 μl DMSO with 100 μg peptide in 100 μl PBS and 50 μl CPAS (3-[cyclohexylamino]-1-propanesulfonic acid) (0.5 M, pH 10). The reaction was allowed to proceed for 30 min on ice. To remove the excess ANB-NOS and ions, the mixture was purified by gel filtration on Sephadex G-10 and subsequently by HPLC. […]
To detect the peptide-receptive MHC class I molecules in the microsomal membranes, a crosslinker (ANB-NOS) was conjugated to the ε-amino group of the lysine residue of an H2-Kb-binding ovalbumin (OVA) peptide (residues 257-264, SIINFEKL) and substituted the isoleucine at position 3 with tyrosine to allow for iodination. […] For a quantitative comparison of peptide-receptive H2-Kb in microsomes and on cell surface of living RAW309Cr.1, the modified OVA peptide was labelled by ^125I and incubated with microsomes of RAW309Cr.1 and living RAW309Cr.1 cells under UV irradiation. Peptide-bound H2-Kb molecules were subsequently analysed by immunoprecipitation with an anti-H2 antibody Y3.

[1] = test system: T cells isolated from spleens; assay: In vivo immunisation of C57BL/6 mice, spleen T cells cross-stimulated in vitro (proliferation, IL-2); conditions: C57BL/6, injected twice subcutaneously, one week interval, T cells six days after second injection
Source text: C57BL/6 (H-2b) mice were primed […]. by OVA-edited microsomes or Ld-peptide loaded microsomes or OVA peptide or OVA-pulsed RAW309Cr.1 cells and challenged by same stimulus after seven days. Six days after the challenge, enriched T cells were isolated from spleens and cultured at 10^5 cells/well with stimulus indicated. The RAW309Cr.1 cells were irradiated before co-culture with T cells. After three days, supernatants were harvested for cytokine ELISA (b) and cultures pulsed with [^3H]thymidine (a). The results are representative of groups of at least three mice per treatment group and the experiment was repeated four times with similar results. Error bars indicate the SEM of triplicate cultures. Similar set of experiments performed in Balb/c (H-2d) mice served as negative control.
To further examine the ability of OVA-edited microsomes to induce immune responses in vivo, OVA-edited microsomes from RAW309Cr.1 cells, microsomes loaded with Ld-specific peptide, soluble OVA peptides, RAW309Cr.1 pulsed with OVA peptides and PBS were used to induce immune response in vivo. Five groups of C57BL/6 or Balb/c mice, each group consisting of five mice, were injected twice subcutaneously with above stimuli, respectively. The interval between injections was one week. […]

Sequence: SIINFEKL [OVA peptide]
- IL-2 production by B3Z cells (B3Z T cell hybridoma): could induce IL-2 production
- Competition of the labelled report OVA peptide binding to Kb (H2-Kb molecules): 50%
- Induction of T cell responses by the immunising stimulus (proliferation of spleen T cells) [1]: responded to OVA-edited microsomes in vitro
